From ChEMBL document CHEMBL2169754, “Imidazo[1,2-a]pyridines That Directly Interact with Hepatitis C NS4B: Initial Preclinical Characterization” (ACS Med Chem Lett, 2012) come the findings set out here.

The structures appear in SMILES notation.

Series [1] concerns Hepatitis C virus. The series is described as follows: Antiviral activity against wild type HCV genotype 1a infected in human HuH7 cells after 48 hrs by luciferase reporter gene assay. Format: functional, organism-based, Hepacivirus hominis. Conditions: subtype 1a, Huh-7, 48 h; call rule not given here.
Series [2] deals with Hepatitis C virus. The series is described as follows: Antiviral activity against wild type HCV genotype 1b infected in human HuH7 cells after 48 hrs by luciferase reporter gene assay. Format: functional, organism-based, Hepacivirus hominis. The following applies: Huh-7, 48 h.
Series [3] concerns Hepatitis C virus. As to the kind of experiment: Displacement of [3H]-3-(1-(3-chloro-6-isopropyl-8-(trifluoromethyl)imidazo[1,2-a]pyridine-2-carbonyl)piperidin-4-yl)oxazolidin-2-one from HCV genotype 1b His6-tagged NS4B expressed in baculovirus infected Sf9 cells after overnight incubation. On the set-up: species or system Hepatitis C virus subtype 1b.
Series [4] can be described thus: AUC (0 to 24 hrs) in Sprague-Dawley rat at 5 mg/kg, po. The following applies: plasma. Format: ADME, organism-based. On the set-up: time < 24 hr, dose 5 mg/kg, route oral.
Series [5] can be described thus: Solubility of the compound. Format: physicochemical.
The nature of series [6]: Oral bioavailability in Sprague-Dawley rat at 5 mg/kg. Format: ADME, organism-based. The following applies: in vivo.
A short description of series [7]: Half life in Sprague-Dawley rat at 5 mg/kg, po. The following applies: in vivo. Format: ADME, organism-based. On the set-up: dose 5 mg/kg, route oral.
Series [8] can be described thus: Clearance in Sprague-Dawley rat at 1 mg/kg, iv. Format: ADME, organism-based. The following applies: in vivo. Also noted: dose 1 mg/kg, route intravenous.
The nature of series [9]: Volume of distribution at steady state in Sprague-Dawley rat at 1 mg/kg, iv. Format: ADME, organism-based. On the set-up: dose 1 mg/kg, route intravenous. The following applies: in vivo, read-out: Vdss.
The subject of series [10] is Hepatitis C virus. The series is described as follows: Binding affinity to HCV genotype 1b His6-tagged NS4B expressed in baculovirus infected Sf9 cells after overnight incubation. The following applies: Hepatitis C virus subtype 1b, tested as the 3H-labelled form.
Series [11] deals with Liver microsomes. As to the kind of experiment: Drug metabolism in human liver microsomes assessed as reactive metabolite formation at 10 uM after 30 mins by glutathione trapping assay. Format: ADME, Microsome. The following applies: 0.5 h.
Another series addresses Cytochrome P450 2C19 (Homo sapiens, UniProt P33261). The series is described as follows: Inhibition of CYP2C19 in human liver microsomes after 10 mins by LC/MS/MS analysis. Format: ADME, Microsome.
A further series concerns the target T1, Cytochrome P450 1A2 (Homo sapiens, UniProt P05177).
T1 sequence (P05177 whole entry): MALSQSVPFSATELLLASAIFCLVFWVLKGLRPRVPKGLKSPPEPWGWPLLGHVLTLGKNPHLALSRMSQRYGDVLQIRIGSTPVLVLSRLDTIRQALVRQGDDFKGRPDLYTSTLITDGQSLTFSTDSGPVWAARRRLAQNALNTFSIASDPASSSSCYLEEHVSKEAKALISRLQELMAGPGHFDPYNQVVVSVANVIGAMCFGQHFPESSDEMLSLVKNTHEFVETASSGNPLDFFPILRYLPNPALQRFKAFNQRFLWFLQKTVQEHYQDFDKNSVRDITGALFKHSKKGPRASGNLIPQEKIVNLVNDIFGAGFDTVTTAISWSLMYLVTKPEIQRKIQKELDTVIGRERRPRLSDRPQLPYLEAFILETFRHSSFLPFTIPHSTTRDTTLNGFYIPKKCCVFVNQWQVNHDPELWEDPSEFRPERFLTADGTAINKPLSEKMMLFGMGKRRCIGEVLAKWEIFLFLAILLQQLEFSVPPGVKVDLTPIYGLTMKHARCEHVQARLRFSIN
As to the kind of experiment: Inhibition of CYP1A2 in human liver microsomes after 10 mins by LC/MS/MS analysis. Format: ADME, Microsome.

The next series addresses Cytochrome P450 2D6 (Homo sapiens, UniProt P10635). As to the kind of experiment: Inhibition of CYP2D6 in human liver microsomes after 10 mins by LC/MS/MS analysis. Format: ADME, Microsome.
In another series the target is Cytochrome P450 3A4 (Homo sapiens, UniProt P08684). As to the kind of experiment: Inhibition of CYP3A4 in human liver microsomes after 7 mins by LC/MS/MS analysis. Format: ADME, Microsome.
The test system of series [12] is Liver microsomes. As to the kind of experiment: Drug metabolism in rat liver microsomes assessed as reactive metabolite formation at 10 uM after 30 mins by glutathione trapping assay. Format: ADME, Microsome. Conditions: 0.5 h.
A further series concerns the target Cytochrome P450 2C9 (Homo sapiens, UniProt P11712). The series is described as follows: Inhibition of CYP2C9 in human liver microsomes after 10 mins by LC/MS/MS analysis. Format: ADME, Microsome.

Sequence of Cytochrome P450 2C9 (P11712 whole entry): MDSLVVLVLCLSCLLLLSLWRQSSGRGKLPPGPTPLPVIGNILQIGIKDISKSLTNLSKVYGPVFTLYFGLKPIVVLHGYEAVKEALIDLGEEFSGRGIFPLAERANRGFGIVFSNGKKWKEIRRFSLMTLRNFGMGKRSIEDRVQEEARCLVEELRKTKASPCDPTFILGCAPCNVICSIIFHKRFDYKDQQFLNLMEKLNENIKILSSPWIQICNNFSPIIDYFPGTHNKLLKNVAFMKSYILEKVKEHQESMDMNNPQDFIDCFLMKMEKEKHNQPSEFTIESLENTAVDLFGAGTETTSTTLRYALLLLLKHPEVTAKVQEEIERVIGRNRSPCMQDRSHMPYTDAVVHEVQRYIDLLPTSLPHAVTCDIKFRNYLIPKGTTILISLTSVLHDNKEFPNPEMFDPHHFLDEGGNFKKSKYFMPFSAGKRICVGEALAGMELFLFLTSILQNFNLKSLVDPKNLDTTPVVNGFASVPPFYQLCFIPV
Sequence of Cytochrome P450 2C19 (P33261 whole entry): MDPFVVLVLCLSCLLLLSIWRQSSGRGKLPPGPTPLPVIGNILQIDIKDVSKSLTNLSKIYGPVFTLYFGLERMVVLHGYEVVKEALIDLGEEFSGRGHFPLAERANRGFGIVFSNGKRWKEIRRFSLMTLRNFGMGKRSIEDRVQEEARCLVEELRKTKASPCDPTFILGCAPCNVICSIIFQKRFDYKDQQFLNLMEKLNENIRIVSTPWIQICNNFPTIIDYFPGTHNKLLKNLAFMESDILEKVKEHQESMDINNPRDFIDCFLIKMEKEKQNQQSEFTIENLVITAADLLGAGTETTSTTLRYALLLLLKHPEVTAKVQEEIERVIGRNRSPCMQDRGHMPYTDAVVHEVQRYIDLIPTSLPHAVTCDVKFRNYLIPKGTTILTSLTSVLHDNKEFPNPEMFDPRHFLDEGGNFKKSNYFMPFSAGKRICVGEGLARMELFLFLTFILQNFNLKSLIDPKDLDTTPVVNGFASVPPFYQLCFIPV
Sequence of Cytochrome P450 2D6 (P10635 whole entry): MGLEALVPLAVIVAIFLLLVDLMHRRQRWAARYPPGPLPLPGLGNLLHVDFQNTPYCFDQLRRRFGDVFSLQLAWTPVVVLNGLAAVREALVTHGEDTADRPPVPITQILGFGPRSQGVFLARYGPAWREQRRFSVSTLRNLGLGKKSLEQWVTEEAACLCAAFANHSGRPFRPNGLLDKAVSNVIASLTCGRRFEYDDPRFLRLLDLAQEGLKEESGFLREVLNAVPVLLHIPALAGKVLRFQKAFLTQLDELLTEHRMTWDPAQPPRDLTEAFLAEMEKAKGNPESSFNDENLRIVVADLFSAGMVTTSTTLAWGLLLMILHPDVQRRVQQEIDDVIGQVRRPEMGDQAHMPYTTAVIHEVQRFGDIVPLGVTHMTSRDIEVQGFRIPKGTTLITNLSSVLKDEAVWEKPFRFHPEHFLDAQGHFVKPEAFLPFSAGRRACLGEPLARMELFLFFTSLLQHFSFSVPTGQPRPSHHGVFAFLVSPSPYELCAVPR
Sequence of Cytochrome P450 3A4 (P08684 whole entry): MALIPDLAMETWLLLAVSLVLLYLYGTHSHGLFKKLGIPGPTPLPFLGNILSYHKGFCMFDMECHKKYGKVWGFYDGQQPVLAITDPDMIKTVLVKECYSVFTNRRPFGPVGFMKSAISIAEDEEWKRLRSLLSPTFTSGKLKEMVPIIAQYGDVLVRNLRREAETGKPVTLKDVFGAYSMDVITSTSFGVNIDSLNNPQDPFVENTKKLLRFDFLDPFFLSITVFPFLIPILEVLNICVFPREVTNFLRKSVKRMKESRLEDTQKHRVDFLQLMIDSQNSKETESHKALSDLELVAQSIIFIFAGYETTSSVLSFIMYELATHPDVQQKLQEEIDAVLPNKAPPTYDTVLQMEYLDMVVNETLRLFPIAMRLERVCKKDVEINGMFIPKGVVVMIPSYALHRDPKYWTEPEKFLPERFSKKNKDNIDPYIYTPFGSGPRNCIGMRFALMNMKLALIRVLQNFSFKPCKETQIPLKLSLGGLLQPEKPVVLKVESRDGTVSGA

For `O=C(c1nc2c(C(F)(F)F)cc(-c3ccoc3)cn2c1Cl)N1CCC(c2cccs2)CC1`, the values for the EC50 with Hepatitis C virus [1] and in the series on Hepatitis C virus [2] were 220 nM and 110 nM, respectively. The compound further yielded a 50% inhibitory concentration (IC50) in the series on Hepatitis C virus [3] of 5.3 nM.
As for `O=C(c1nc2c(C(F)(F)F)cc(-c3ccoc3)cn2c1Cl)N1CCC(N2C(=O)COC2=O)CC1`, the area under the curve AUC(0-t) at 24 h in series [4] worked out at 1100 ng·h/mL. This compound came in with a solubility in series [5] of over 500 µM. The compound further showed a bioavailability in series [6] of 60%. In addition, the results for the EC50 in the series with Hepatitis C virus [1] and in the series with Hepatitis C virus [2] were 20 nM and 51 nM, respectively. Besides, in series [7], the half-life was 3 h. The clearance in series [8] came out at 46 mL/min/kg. Also, in the series on Hepatitis C virus [3], the 50% inhibitory concentration (IC50) was determined as 35 nM. In series [9], the Vd worked out at 3.1 L/kg.
The compound `CC1(C)CN(C2CCN(C(=O)c3nc4c(C(F)(F)F)cc(-c5ccoc5)cn4c3Cl)CC2)C(=O)O1` had a solubility in series [5] of over 500 µM. The EC50 turned out to be 9900 nM in the series with Hepatitis C virus [1] and 76000 nM in the series on Hepatitis C virus [2]. In addition, in the series with Hepatitis C virus [3], the IC50 was determined as 220 nM.
The compound `[3H]CC([3H])(C)c1cc(C(F)(F)F)c2nc(C(=O)N3CCC(N4CCOC4=O)CC3)c(Cl)n2c1` (stereo not given) returned a half-maximal inhibitory concentration (IC50) with Hepatitis C virus [3] of 30 nM.
On to `O=C(c1nc2c(C(F)(F)F)cc(-c3ccoc3)cn2c1Cl)N1CCC(N2CCCC2=O)CC1`, for which the solubility in series [5] was over 500 µM. Besides, the EC50 with Hepatitis C virus [1] was found to be 260 nM; in the series with Hepatitis C virus [2] it was 90 nM. The compound also showed an IC50 in the series on Hepatitis C virus [3] of 170 nM.
`CC(C)c1cc(C(F)(F)F)c2nc(C(=O)N3CCC(N4CCOC4=O)CC3)c(Cl)n2c1`: the half-maximal effective concentration (EC50) in the series with Hepatitis C virus [1] and with Hepatitis C virus [2] was under 55 nM each time. The compound also displayed a Kapp in the series with Hepatitis C virus [10] of 30 nM.
In the case of `O=C(c1nc2c(C(F)(F)F)cc(-c3ccoc3)cn2c1Cl)N1CCC(N2CCOC2=O)CC1`, the Drug metabolism result in the series on Liver microsomes [11] and in the series with Liver microsomes [12] was “Not Active” each time. Also, the “inhibition (INH)” value at Cytochrome P450 2C19, at Cytochrome P450 1A2, against Cytochrome P450 2D6, on Cytochrome P450 3A4 and against Cytochrome P450 2C9 was “Not Active” throughout. The compound further yielded an AUC(0-t) at 24 h in [4] of 700 ng·h/mL. The compound also yielded a solubility in series [5] of over 500 µM. Moreover, the bioavailability in [6] was found to be 60%. Moreover, the EC50 in the series on Hepatitis C virus [1] stood at 7.4 nM; in the series with Hepatitis C virus [2] it was 18 nM. In addition, in series [7], the half-life was 1.9 h. Moreover, the clearance in series [8] stood at 72 mL/min/kg. This compound yielded an IC50 with Hepatitis C virus [3] of 150 nM. For the same compound, the Vd in series [9] turned out to be 2.5 L/kg.
Turning to `O=C(c1nc2c(C(F)(F)F)cc(-c3ccoc3)cn2c1Cl)N1CCN(c2ccccc2)C(=O)C1`, the EC50 worked out at 430 nM in the series on Hepatitis C virus [1] and 160 nM in the series on Hepatitis C virus [2]. Further, the half-inhibitory concentration (IC50) with Hepatitis C virus [3] was determined as 24 nM.
In the case of `CN1CCN(C(=O)c2nc3c(C(F)(F)F)cc(-c4ccoc4)cn3c2Cl)CC1=O`, the solubility in series [5] was over 500 µM. The 50% effective concentration (EC50) in the series with Hepatitis C virus [1] amounted to 18000 nM; in the series with Hepatitis C virus [2] it was 36000 nM. This compound also displayed an IC50 in the series on Hepatitis C virus [3] of 1200 nM.
Turning to `O=C(c1nc2c(C(F)(F)F)cc(-c3ccoc3)cn2c1Cl)N1CCC(c2ccccc2F)C1` (racemic), the solubility in series [5] is under 15 µM. The EC50 in the series on Hepatitis C virus [1] is 680 nM; with Hepatitis C virus [2], 78 nM. Also, in the series on Hepatitis C virus [3], the IC50 was 5.4 nM.
In the same order, the values of `O=C(c1nc2c(C(F)(F)F)cc(-c3ccoc3)cn2c1Cl)N1CCN([C@H]2CC[C@H](O)CC2)C(=O)C1` are over 500 µM, 0.9 nM, 9.7 nM and 43 nM.
